This data set concerns cardiac ventricular tissue. Particulars: at least 2-fold relative to control. From the text:
Male Sprague-Dawley rats weighing between 175-220 grams were used for all studies. Animals were purchased from Charles River Laboratories (Wilmington, Mass.) and allowed to acclimate for one week prior to use. All animals were given food and water ad libitum, and housed under a 12-hour light/12-hour dark cycle. The animals were housed in conventional plastic bottom cages (2 animals/cage) with corncob bedding. All dosing with test compounds was a single acute injection by the intraperitoneal route, in normal saline, with a 20×¾″ disposable needle attached to a 1 cc disposable syringe. These animals were euthanized by a 150 mg/kg intraperitoneal injection of Nembutal prior to collection of heart tissue.
Dose range-finding studies were completed to determine a xenobiotic dose that would produce signs of cardiotoxicity such as elevated serum troponins, creatine kinase isoenzymes, or histo-pathological tissue changes, without causing overt general toxicity. Comprehensive literature reviews were also used to select doses. […] Six or twenty-four hours later, animals were euthanized with a lethal intraperitoneal dose of Nembutal solution. Biopsy punches were used to remove approximately […] of ventricular tissue for subsequent RNA isolation and gene expression analysis. Total RNA was isolated from the samples using a Qiagen RNAeasy protocol (Valencia, Calif.). In this procedure, RNA is captured on a solid phase column, then washed with a series of solutions to purify the sample. In the last step, RNA is eluted from the column with RNAse free water. RNA quality and quantity was then checked with an optical density reading at 260/280 wavelengths, and an aliquot of RNA was run on an RNA denaturing gel. High quality RNA should have an OD 260/280 ratio of 2, and the denaturing gel should show two distinct ribosomal RNA bands.
Synthesis of double stranded cDNA from the total RNA isolated was the first step, which involves the incorporation of a T7-(dT)24 primer into the sequence, with subsequent second strand synthesis which yields a double stranded template for the in vitro transcription (IVT) reaction. The resulting cDNA was run in an IVT reaction using an Enzo BioArray High Yield RNA transcript labeling kit (Enzo Life Sciences, Inc. Farmingdale, N.Y.), during which a biotin label was incorporated into the complementary RNA (cRNA) sequence. This step also amplified the product by generating approximately 40 transcripts per cDNA substrate. After the IVT reaction, cRNA was fragmented by metallic fragmentation, and a small portion of the sample was run on a 1% agarose gel in order to visualize the fragmentation pattern. The range should be between 35 to 200 bases. Four samples from each group showing the highest purity and quality results were pooled for hybridization onto one Genechip to greatly reduce experimental costs. Genes of interest that are found through the use of GeneChip technology, will then be verified using real time PCR techniques on each individual sample.
Next, the cRNA was hybridized to the RG U34A GeneChip oligonucleotide array (Affymetrix Inc, Santa Clara, Calif.). An aliquot of the fragmented cRNA was mixed with control components, injected into the array, and the filled array was allowed to incubate at 45° C. for 16 hours in an Affymetrix oven, which rotates the samples continuously during incubation. The next morning, the array was taken from the oven and the sample was removed and frozen at −80° C. for possible future use. That is, in the event of a defective chip, the hybridization solution can be re-used. The array chamber was then filled with a wash buffer, and placed in an automated fluid exchange system. The fluidics station controls the washing and staining of the probe array with the fluorescently labeled streptavidin stain solution and an antibody solution. After the staining process was complete the chips were scanned by an Agilent GeneArray laser scanner (Agilent, Palo Alto, Calif.).

Setting [1] is: 6 hour after single i.p. dose (DIG 20, DOX 30, ISO 70, LPS 10 mg/kg).
Setting [2] is: 24 hour after single i.p. dose (DIG 20, DOX 30, ISO 70, LPS 10 mg/kg).

As for lipopolysaccharide [LPS], under setting [1], the “AA957003 intercellular calcium-binding protein expression, up or down” value was “up”; the “AI176456 metallothionein expression, up or down” value is “up”; the “J02722 heme oxygenase (hsp32) expression, up or down” value is reported as “up”; the “X01118 gamma-rANP expression, up or down” value is on record as “down”. Further, the “X89225 L-like neutral amino acid transport protein expression, up or down” value under setting [1] was “up”. In addition, under setting [2], the “AA892801 EST expression, up or down” value is listed as “up”; the “AA899106 cyclin D2 expression, up or down” value is given as “down”; the “AB005743 fatty acid transporter expression, up or down” value is “up”; the “AF016296 neuropilin expression, up or down” value is listed as “down”. Also, under setting [2], the “AI008852 EST expression, up or down” value is “up”; the “AI170776 GRB2 expression, up or down” value is on record as “up”; the “AI638989 EST expression, up or down” value is recorded as “down”; the “D85183 SHPS-1 expression, up or down” value is “up”. In addition, under setting [2], the “M57276 leukocyte antigen MRC-OX44 expression, up or down” value is “up”; the “U14950 synapse-associated protein 97 expression, up or down” value was “up”; the “U68272 interferon gamma receptor expression, up or down” value is listed as “up”; the “X52140 integrin alpha-1 expression, up or down” value is “down”. Besides, the “X71127 complement protein C1q beta chain expression, up or down” value under setting [2] was “up”.
